Paper doi:10.1101/2025.03.24.645127v1 (biorxiv, 2025)

Target: T1, GPR119 (Homo sapiens, UniProt Q8TDV5)
T1 sequence (Q8TDV5 1-335): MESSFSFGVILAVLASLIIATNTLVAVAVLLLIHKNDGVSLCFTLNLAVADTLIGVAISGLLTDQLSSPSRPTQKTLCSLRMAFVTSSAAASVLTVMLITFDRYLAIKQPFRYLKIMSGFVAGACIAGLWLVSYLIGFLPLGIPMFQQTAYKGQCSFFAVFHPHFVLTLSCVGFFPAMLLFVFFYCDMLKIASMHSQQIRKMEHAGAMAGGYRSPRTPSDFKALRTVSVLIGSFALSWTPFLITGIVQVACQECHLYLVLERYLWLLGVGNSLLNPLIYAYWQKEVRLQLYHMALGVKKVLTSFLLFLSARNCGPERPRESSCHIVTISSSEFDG
Experiment: cAMP GloSensor assay in CHO-K1
Type: cell-based

`COC(=O)N[C@H](C(=O)N[C@@H](Cc1ccccc1)[C@@H](O)CN(Cc1ccc(-c2ccccn2)cc1)NC(=O)[C@@H](NC(=O)OC)C(C)(C)C)C(C)(C)C` [atazanavir] showed an EC50 of roughly 3 µM.
